Assay results from patent US20250145589A1, “PYRIDINE DERIVATIVE AND USE THEREOF” (SICHUAN HUIYU PHARMACEUTICAL CO., LTD., priority 2021, published 2025).
Where two headings read alike, the source gives them in different places.

Legend:
[1] = target: PI3Kδ (Homo sapiens (Human), UniProt O00329); assay: Inhibition of PI3Kδ efficacy assay (ADP-Glo kinase assay); format: biochemical; settings: read-out: PI3Kδ inhibitory activity (IC50)
Procedure, shortened: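 Luminescent ADP-Glo readout of PI3Kδ: after a 60 min RT reaction with PI/ATP substrate, ATP depletion (40 min) and ADP detection (40 min) steps followed. Compounds tested as eight five-fold serial dilutions; inhibition rates fitted to log(inhibitor) vs. response, variable slope, for IC50.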

[2] = target: PI3Kα (Homo sapiens (Human), UniProt P42336); assay: Inhibition of PI3Kα efficacy assay (ADP-Glo kinase assay); format: biochemical; settings: read-out: PI3Kα inhibitory activity (IC50)
Procedure, shortened: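 ADP-Glo luminescent detection of ADP from PI3Kα acting on PI substrate with ATP, 60 min at RT; compounds in 8-point five-fold serial dilution from 2 mM DMSO stock. IC50 from four-parameter variable-slope fit.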

[3] = target: KRAS^G12C-SOS1 (Homo sapiens (Human), UniProt P01116, G12C); assay: HTRF KRAS G12C/SOS1 binding assay; settings: Table 5
Protocol: Initially, a 2 mM stock solution of the test compound (dissolved in DMSO) was serially diluted in five-fold concentrations using DMSO to obtain eight working solutions 1 (200×). Subsequently, each of the eight working solutions 1 was further diluted in a 20-fold gradient by adding 5 μL into 95 μL of Diluent buffer, mixed completely with vortex mixer, resulting in eight working solutions 2 (10×). […] Subsequently, 5 μL of Anti-tag 1-Tb^3+ stock solution and 5 μL of Anti-tag2-XL665 were added to each well, mixed, and incubated at 4° C. for 3 hours. Remove the plate and read on an HTRF® compatible reader, with the excitation light wavelength set at 337 nm and readings recorded at 620 nm and 665 nm. The data results were presented as the ratio of the 665 nm signal value to the 620 nm signal value for each well, calculated as follows: […]. The inhibition rate was calculated using the following formula: […]
Data were analyzed using GraphPad Prism with log (inhibitor) vs. response-Variable Slope (four parameters) fitting calculations for IC50 values.

[4] = tested on: NCI-H358 cells (KRAS G12C mutant); assay: NCI-H358 cell proliferation inhibition (CellTiter-Glo); format: cell-based; settings: Homo sapiens, NCI-H358, 72 h; H358 cells (G12C mutation), 3 days, Table 6; read-out: NCI-H358 (IC50)
[5] = tested on: MIA PaCa-2 cells (KRAS G12C mutant); assay: MIA PaCa-2 cell anti-proliferation (CellTiter-Glo); format: cell-based; settings: Homo sapiens, 72 h; MIA Paca-2 cells, 3 days, Table 7; read-out: MIA PaCa-2 (IC50)
Procedure, shortened: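 Viable-cell luminescence (CellTiter-Glo, ≥30 min at 25 °C) measured after a 3-day, 37 °C exposure to compounds at 9 points, 4-fold spaced, in DMEM containing 10% FBS plus 2.5% horse serum. IC50 derived versus no-inhibitor wells.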

[6] = tested on: NCI-H358-AMGR drug-resistant cell line; assay: NCI-H358-AMGR drug-resistant cell proliferation inhibitory activity test; format: cell-based; settings: 72 h; NCI-H358-AMGR drug-resistant cells, 3 days incubation, CellTiter-Glo
Protocol: Test Example 6t Generation of NCI-H358-AMGR Drug-Resistant Cell Line
NCI-H358 cells were seeded and cultured at 50 to 70% confluence in six-well plate with RPMI-640 (10% FBS) medium at 37° C. with 5%4 CO2. AMG510 was added for induction at three starting concentrations of 1 nM, 10 nM and 50 nM, and the medium containing the same concentration of AMG510 was replaced every 3 days. Cells were passaged once they reached confluence. After every, two passages at a given concentration of drug, the concentration was increased in a 3-old increment until final concentrations of 1 μM for AMG510 was achieved.
NCI-H358-AMGR cells in logarithmic growth phase were collected and seeded into a clear-bottom 96-well plate at a density of 4×10^3 cells per well in 80 μL of medium, and then incubated overnight at 37° C. with 5% CO2. The compounds were serially diluted 5-fold in DMSO to obtain 8 concentrations, and then further diluted with RPMI-640) (10% FBS) cell culture medium to obtain the working solutions (5×), 20 μL of each working solution was added to the cell culture supernatant in each well, and the plate was further incubated for 3 days at 37° C. with 5% CO2. The plate was then equilibrated with CellTiter-Glo® reagent at room temperature (25° C.) for 10-30 minutes. After aspirating 50 μL of the medium, 50 μL of CellTiter-Glo®, reagent was added. The cells were thoroughly mixed with the CellTiter-Glo®, reagent using a microplate shaker for 2 minutes, and then incubated at room temperature for 10 minutes. The […] was placed in a multi-mode microplate reader to record the luminescence values (RLU).
The inhibitory rate was calculated using the following formula: […]
Data were analyzed using GraphPad Prism for IC50 values (Note: The negative control refers to the group without inhibitor).

Chain of KRAS^G12C-SOS1 (P01116-2 other isoform, or with tags, fused parts or gaps G12C): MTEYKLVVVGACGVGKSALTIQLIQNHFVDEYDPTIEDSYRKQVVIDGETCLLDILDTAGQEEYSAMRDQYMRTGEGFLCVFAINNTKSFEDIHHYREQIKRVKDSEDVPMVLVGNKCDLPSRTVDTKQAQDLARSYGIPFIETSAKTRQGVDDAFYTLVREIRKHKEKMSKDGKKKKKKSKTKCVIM
Chain of PI3Kδ (O00329 whole entry): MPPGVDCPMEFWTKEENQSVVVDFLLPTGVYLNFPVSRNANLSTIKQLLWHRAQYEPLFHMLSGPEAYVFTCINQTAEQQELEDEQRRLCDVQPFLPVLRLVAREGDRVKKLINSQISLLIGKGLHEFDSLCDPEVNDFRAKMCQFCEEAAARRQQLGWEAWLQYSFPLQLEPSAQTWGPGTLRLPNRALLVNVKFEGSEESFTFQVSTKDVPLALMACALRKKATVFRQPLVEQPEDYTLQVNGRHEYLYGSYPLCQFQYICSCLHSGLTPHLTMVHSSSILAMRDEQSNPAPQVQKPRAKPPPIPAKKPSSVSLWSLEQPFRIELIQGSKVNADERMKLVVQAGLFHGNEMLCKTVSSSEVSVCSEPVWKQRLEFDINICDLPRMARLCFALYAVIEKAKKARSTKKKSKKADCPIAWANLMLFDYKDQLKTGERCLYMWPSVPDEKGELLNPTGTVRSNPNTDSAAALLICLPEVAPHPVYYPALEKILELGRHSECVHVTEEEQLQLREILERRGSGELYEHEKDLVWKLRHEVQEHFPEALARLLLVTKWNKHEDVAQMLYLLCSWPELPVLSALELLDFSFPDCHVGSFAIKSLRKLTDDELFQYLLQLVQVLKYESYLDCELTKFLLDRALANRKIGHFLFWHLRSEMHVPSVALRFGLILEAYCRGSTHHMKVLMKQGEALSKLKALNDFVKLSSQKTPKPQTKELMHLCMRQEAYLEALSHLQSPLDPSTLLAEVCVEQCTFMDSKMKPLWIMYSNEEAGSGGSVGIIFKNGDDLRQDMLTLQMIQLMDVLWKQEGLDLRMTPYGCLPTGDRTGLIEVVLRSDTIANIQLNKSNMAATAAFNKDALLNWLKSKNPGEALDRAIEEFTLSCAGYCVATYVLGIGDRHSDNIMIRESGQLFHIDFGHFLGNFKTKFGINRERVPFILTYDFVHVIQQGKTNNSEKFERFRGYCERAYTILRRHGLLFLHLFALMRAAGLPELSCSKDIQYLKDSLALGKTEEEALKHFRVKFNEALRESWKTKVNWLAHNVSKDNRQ
Chain of PI3Kδ (P27986 whole entry partner): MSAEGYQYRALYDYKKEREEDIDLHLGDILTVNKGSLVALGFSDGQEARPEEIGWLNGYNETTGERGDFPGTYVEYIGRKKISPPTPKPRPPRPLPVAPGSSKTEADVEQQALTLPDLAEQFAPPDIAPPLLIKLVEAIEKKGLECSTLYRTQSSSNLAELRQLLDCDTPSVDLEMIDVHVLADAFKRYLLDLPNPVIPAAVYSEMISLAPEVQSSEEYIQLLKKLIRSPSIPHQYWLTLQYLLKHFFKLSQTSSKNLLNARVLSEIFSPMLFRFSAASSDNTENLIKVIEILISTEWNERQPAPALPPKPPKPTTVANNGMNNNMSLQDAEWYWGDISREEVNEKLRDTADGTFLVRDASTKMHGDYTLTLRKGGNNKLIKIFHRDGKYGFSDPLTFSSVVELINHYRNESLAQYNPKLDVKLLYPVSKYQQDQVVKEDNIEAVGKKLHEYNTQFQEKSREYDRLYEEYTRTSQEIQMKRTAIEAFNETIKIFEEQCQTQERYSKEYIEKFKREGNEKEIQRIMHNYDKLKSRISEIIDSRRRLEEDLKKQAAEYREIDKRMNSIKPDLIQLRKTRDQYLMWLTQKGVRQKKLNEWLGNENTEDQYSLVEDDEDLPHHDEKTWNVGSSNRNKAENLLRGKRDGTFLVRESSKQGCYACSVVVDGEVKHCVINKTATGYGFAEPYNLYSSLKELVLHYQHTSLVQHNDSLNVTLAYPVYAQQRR
Chain of PI3Kα (P42336 whole entry): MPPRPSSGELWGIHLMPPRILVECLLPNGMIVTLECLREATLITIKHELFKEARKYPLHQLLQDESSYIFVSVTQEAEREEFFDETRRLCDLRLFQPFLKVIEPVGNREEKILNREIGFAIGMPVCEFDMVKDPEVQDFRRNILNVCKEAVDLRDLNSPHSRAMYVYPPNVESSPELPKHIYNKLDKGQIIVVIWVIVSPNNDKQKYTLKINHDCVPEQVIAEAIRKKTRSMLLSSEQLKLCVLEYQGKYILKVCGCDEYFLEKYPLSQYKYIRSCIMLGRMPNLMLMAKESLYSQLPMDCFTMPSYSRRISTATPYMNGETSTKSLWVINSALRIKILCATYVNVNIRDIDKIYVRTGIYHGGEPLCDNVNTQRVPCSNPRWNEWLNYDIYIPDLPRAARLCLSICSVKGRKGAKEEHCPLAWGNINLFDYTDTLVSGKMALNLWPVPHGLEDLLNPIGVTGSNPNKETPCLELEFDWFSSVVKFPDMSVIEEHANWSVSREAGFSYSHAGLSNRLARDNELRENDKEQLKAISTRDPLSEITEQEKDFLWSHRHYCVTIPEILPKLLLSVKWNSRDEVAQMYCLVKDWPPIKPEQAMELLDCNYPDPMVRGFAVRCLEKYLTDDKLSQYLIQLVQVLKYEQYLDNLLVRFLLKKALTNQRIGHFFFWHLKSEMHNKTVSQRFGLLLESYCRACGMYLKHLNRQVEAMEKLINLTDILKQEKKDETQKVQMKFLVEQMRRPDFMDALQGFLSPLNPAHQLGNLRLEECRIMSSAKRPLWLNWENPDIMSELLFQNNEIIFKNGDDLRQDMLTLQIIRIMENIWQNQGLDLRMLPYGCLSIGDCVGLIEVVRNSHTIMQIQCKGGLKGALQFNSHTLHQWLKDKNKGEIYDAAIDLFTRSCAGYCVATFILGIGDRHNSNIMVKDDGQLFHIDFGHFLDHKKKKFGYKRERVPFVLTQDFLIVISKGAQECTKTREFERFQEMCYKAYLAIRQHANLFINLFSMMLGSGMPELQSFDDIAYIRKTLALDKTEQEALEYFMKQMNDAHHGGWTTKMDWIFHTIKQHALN
Chain of PI3Kα (P27986 whole entry partner): as the sequence (P27986 whole entry partner) above

Row | SMILES | IC50 ([1]; Table 4) [nM] | IC50 ([2]; Table 4) [nM] | IC50 [3] [nM] | IC50 ([1]; Table 3) [nM] | IC50 [4] [nM] | IC50 [5] [nM] | IC50 ([2]; Table 3) [nM] | IC50 [6] [nM] | IC50 ([1]; Table 2) [nM] | IC50 ([2]; Table 2) [nM] | IC50 ([1]; Table 1) [nM] | IC50 ([2]; Table 1) [nM]
1 | COc1ncc(-c2ccc3ncnc(C4CCN(C(=O)/C=C/C(C)=O)CC4)c3n2)cc1NS(=O)(=O)c1c(F)cccc1Cl [Example 235, (E)-2-chloro-6-fluoro-N-(2-methoxy-5-(4-(1-(4-oxopent-2-enoyl)piperidin-4-yl)pyrido[3,2-d]pyrimidin-6-yl)pyridin-3-yl)benzenesulfonamide] | 2.38 | 0.3 | 113 |  |  |  |  |  |  |  |  | 
2 | COc1ncc(-c2ccc3ncnc(N4CCN(C(=O)/C=C/C(C)=O)CC4)c3n2)cc1NS(=O)(=O)c1ccccc1F [Example 133, (E)-2-fluoro-N-(2-methoxy-5-(4-(4-(4-oxopent-2-enoyl)piperazin-1-yl)pyrido[3,2-d]pyrimidin-6-yl)pyridin-3-yl)benzenesulfonamide] |  |  | 251 | 20.4 | 4.1 | 12 | 5.4 |  |  |  |  | 
3 | CC(=O)/C=C/C(=O)N1CCN(c2ncnc3ccc(-c4cnc(N(C)C)c(NS(=O)(=O)c5ccc(F)cc5F)c4)cc23)CC1 [Example 195, (E)-N-(2-(dimethylamino)-5-(4-(4-(4-oxopent-2-enoyl)piperazin-1-yl)quinazolin-6-yl)pyridin-3-yl)-2,4-difluorobenzenesulfonamide] | 13.5 | 2.4 | 158 |  | 43.9 | 93.3 |  | 92.3 |  |  |  | 
4 | COc1ncc(-c2ccc3ncnc(N4CC5CCC(C4)N5C(=O)/C=C/C(C)=O)c3c2)cc1NS(=O)(=O)c1ccc(F)cc1F [Example 58, 2,4-difluoro-N-(2-methoxy-5-(4-(8-((E)-4-oxopent-2-enoyl)-3,8-diazabicyclo[3.2.1]octan-3-yl)quinazolin-6-yl)pyridin-3-yl)benzenesulfon-amide] |  |  | 278 |  | 18.1 | 26.2 |  | 100 | 8.3 | 3.6 |  | 
5 | COc1ncc(-c2ccc3ncnc(N4CCC5(CN(C(=O)/C=C/C(C)=O)C5)C4)c3c2)cc1NS(=O)(=O)c1c(F)cc(F)cc1F [Example 97, (E)-2,4,6-trifluoro-N-(2-methoxy-5-(4-(2-(4-oxopent-2-enoyl)-2,6-diazaspiro[3.4]octan-6-yl)quinazolin-6-yl)pyridin-3-yl)benzenesulfonamide] |  |  | 101 |  | 13.7 | 109 |  |  | 14.1 | 1.4 |  | 
6 | CC(=O)/C=C/C(=O)N1CCN(c2ncnc3ccc(-c4cnc(Cl)c(NS(=O)(=O)c5c(F)cccc5F)c4)cc23)CC1 [Example 84, (E)-N-(2-chloro-5-(4-(4-(4-oxopent-2-enoyl)piperazin-1-yl)quinazolin-6-yl)pyridin-3-yl)-2,6-difluorobenzenesulfonamide] |  |  | 268 |  | 13 | 245 |  | 639 | 7.6 | 0.83 |  | 
7 | CNC(=O)/C=C/C(=O)N1CCN(c2ncnc3ccc(-c4cnc(OC)c(NS(=O)(=O)c5ccc(F)cc5F)c4)cc23)CC1 [Example 179, (E)-4-(4-(6-(5-((2,4-difluorophenyl)sulfonamido)-6-methoxy-pyridin-3-yl)quinazolin-4-yl)piperazin-1-yl)-N-methyl-4-oxobut-2-enamide] |  | 0.37 | 147 |  | 276 | 87.8 |  |  |  |  |  | 
8 | CC(=O)/C=C/C(=O)N1CCN(c2ncnc3ccc(-c4cnc(Cl)c(NS(=O)(=O)c5c(F)cccc5F)c4)cc23)[C@@H](C)C1 [Example 88, (S,E)-N-(2-chloro-5-(4-(2-methyl-4-(4-oxopent-2-enoyl)piperazin-1-yl)quinazolin-6-yl)pyridin-3-yl)-2,6-difluorobenzenesulfonamide] |  |  | 219 |  | 80.9 | 333 |  |  | 11.8 | 2.6 |  | 
9 | COc1ncc(-c2ccc3ncnc(N4CCN(C(=O)/C=C/C(C)=O)CC4)c3c2)cc1NS(=O)(=O)c1ccncc1F [Example 103, (E)-3-fluoro-N-(2-methoxy-5-(4-(4-(4-oxopent-2-enoyl)piperazin-1-yl)quinazolin-6-yl)pyridin-3-yl)pyridine-4-sulfonamide] |  |  | 203 |  | 83 | 344 |  |  | 32.2 | 0.95 |  | 
10 | CC(=O)/C=C/C(=O)N1CCN(c2ncnc3ccc(-c4cnc(Cl)c(NS(=O)(=O)c5c(F)cc(F)cc5F)c4)cc23)CC1 [Example 89, (E)-N-(2-chloro-5-(4-(4-(4-oxopent-2-enoyl)piperazin-1-yl)quinazolin-6-yl)pyridin-3-yl)-2,4,6-trifluorobenzenesulfonamide] |  |  | 404 |  | 81.4 | 511 |  |  | 8.6 | 2.2 |  | 
11 | COc1ncc(-c2ccc3ncnc(N4CCN(C(=O)/C=C/C(C)=O)CC4)c3c2)cc1NS(=O)(=O)c1cc(Cl)cn1C [Example 104, (E)-4-Chloro-N-(2-methoxy-5-(4-(4-(4-oxopent-2-enoyl)piperazin-1-yl)quinazoline-6-yl)pyridin-3-yl)-1-methyl-1H-pyrrole-2-sulfonamide] |  |  | 169 |  | 74.2 | 139 |  |  | 32.2 | 3.8 |  | 
12 | CC(=O)/C=C/C(=O)N1CCN(c2ncnc3ccc(-c4cnc(Cl)c(NS(=O)(=O)c5ccc(F)cc5F)c4)cc23)CC1 [Example 34, (E)-N-(2-chloro-5-(4-(4-(4-oxopent-2-enoyl)piperazin-1-yl)quinazolin-6-yl)pyridin-3-yl)-2,4-difluorobenzenesulfonamide] |  |  | 521 |  |  | 254 |  |  |  |  | 20.8 | 1.4
13 | COc1ncc(-c2ccc3ncnc(C4CCN(C(=O)/C=C/C(C)=O)C4)c3c2)cc1NS(=O)(=O)c1ccc(F)cc1F (stereo not shown) [Example 247, (E)-2,4-difluoro-N-(2-methoxy-5-(4-(1-(4-oxopent-2-enoyl)pyrrolidin-3-yl)quinazolin-6-yl)pyridin-3-yl)benzenesulfonamide] | 3.33 | 0.53 | 277 |  |  |  |  |  |  |  |  | 
14 | COc1ncc(-c2ccc3ncnc(N4CCN(C(=O)/C=C/C(C)=O)CC4)c3n2)cc1NS(=O)(=O)c1ccc(F)cc1F [Example 132, (E)-2,4-difluoro-N-(2-methoxy-5-(4-(4-(4-oxopent-2-enoyl)piperazin-1-yl)pyrido[3,2-d]pyrimidin-6-yl)pyridin-3-yl)benzenesulfonamide] |  |  | 318 | 29.2 | 4 | 16.1 | 3.6 |  |  |  |  | 
15 | COc1ncc(-c2ccc3ncnc(C4=CCN(C(=O)/C=C/C(C)=O)CC4)c3n2)cc1NS(=O)(=O)c1c(F)cccc1Cl [Example 241, (E)-2-chloro-6-fluoro-N-(2-methoxy-5-(4-(1-(4-oxopent-2-enoyl)-1,2,3,6-tetrahydropyridin-4-yl)pyrido[3,2-d]pyrimidin-6-yl)pyridin-3-yl)benzenesulfonamide] | 2.96 | 0.27 | 454 |  |  |  |  |  |  |  |  | 
